PMC10081574, “Evaluation of Antiviral Activity of Gemcitabine Derivatives against Influenza Virus and Severe Acute Respiratory Syndrome Coronavirus 2” (ACS Infectious Diseases, 2023)
Like-named read-outs stand apart in the source and are kept apart here.

Columns and labels:
[1] = tested on: B/Lee/40; assay: CPE reduction antiviral assay in Lee-infected MDCK cells (MTT); format: cell-based, influenza B virus; settings: for EC90 / EC50: Influenza B virus, 72 h, MDCK; for EC90: read-out: EC90 Lee; for EC50: viability of infected cells to 50%; for SI90 Lee: ratio of CC10 to EC90; for SI50 Lee: ratio of CC50 to EC50
[2] = tested on: influenza A and B viruses; assay: CPE reduction antiviral assay, values summarised over influenza strains PR8, HK and Lee; format: cell-based, influenza virus; settings: for EC90: span over PR8, HK and Lee, MDCK, read-out: EC90 against influenza viruses; for SI90 against influenza viruses: over PR8, HK and Lee, CC10/EC90
[3] = tested on: PR8 virus; format: cell-based, influenza A virus
[4] = tested on: PR8 virus; format: cell-based, influenza A virus; remark: listed apart in the source
[5] = biological target: polymerase activity of influenza A virus PR8 (Influenza A virus, UniProt P03431); format: cell-based; settings: 11, 33 and 100 μM, 72 h time course
[6] = tested on: SARS-CoV-2; assay: Anti-SARS-CoV-2 immunofluorescence assay (anti-S) in Calu-3 cells; format: cell-based; settings: for SI SARS-CoV-2: ratio of CC50 to EC50
[7] = tested on: MDCK cells; settings: dog, 3 days
[8] = tested on: A/Puerto Rico/8/34 (H1N1); settings: for SI90 PR8: ratio of CC10 to EC90; for SI50 PR8: ratio of CC50 to EC50
[9] = tested on: A/Hong Kong/8/68 (H3N2); settings: for SI90 HK: ratio of CC10 to EC90; for SI50 HK: ratio of CC50 to EC50
[10] = male, BALB/c, mouse, in vivo, ip, 5 mg/kg, 30 min
[11] = mouse, microsomes
[12] = in vitro; settings: dog
[13] = in vitro; settings: human
[14] = physchem; settings: aqueous buffer
[15] = tested on: A/Puerto Rico/8/34 (H1N1); assay: microbe, parasite or virus in culture; settings: Influenza A virus, H1N1 / PR8, MDCK, 72 h; for EC50: read-out: EC50 PR8; for EC90: read-out: EC90 PR8
[16] = tested on: A/Hong Kong/8/68 (H3N2); assay: microbe, parasite or virus in culture; settings: Influenza A virus, H3N2, MDCK, 72 h; for EC50: read-out: EC50 HK; for EC90: read-out: EC90 HK
[17] = tested on: Calu-3 cells; assay: Cytotoxicity to mock-infected Calu-3 cells (MTT); settings: 100 μM
[18] = Cytotoxicity to mock-infected MDCK cells (MTT); settings: dog, mock-infected MDCK cells
[19] = tested on: MDCK cells; assay: Cytotoxicity to mock-infected MDCK cells (MTT); settings: mock-infected MDCK cells, day 3, MTT; concentration inhibiting cell viability by 10%
[20] = read-out: EC50 Lee, MDCK, MOI 0.001, day 3

SMILES	SI90 Lee [1]	SI50 Lee [1]	EC90 ([2]; Influenza A virus, PR8, MDCK)	SI90 against influenza viruses [2]	EC90 [2]	reduction of viral NP protein expression [3]	reduction of viral RNA copies [4]	inhibition of viral polymerase activity (EGFP expression) [5]	SI SARS-CoV-2 [6]	SI90 PR8 [8]	SI50 PR8 [8]	SI90 HK [9]	SI50 HK [9]	CC50 at 3 days [12]	viability at 3 days, 300 µM [12]	EC50 [15]	EC90 [15]	EC50 [16]	EC90 [16]	EC50 [1, 20]	also measured
Nc1ccc(C(=O)Nc2ccn([C@@H]3O[C@H](CO)[C@@H](O)C3(F)F)c(=O)n2)nc1 [Compound 2h]	> 18.8	> 73.1	10.7 to 34.3 µM	> 8.7	11.4 to 15.9 µM	in a dose-dependent manner	in a dose-dependent manner	potently inhibited viral polymerase activity in a dose-dependent manner	> 217.4	> 24.5	> 47.2	> 26.3	> 59.5	> 300 µM	> 90%	6.4 ± 0.6 µM	12.2 ± 1 µM	5 ± 0.3 µM	11.4 ± 0.6 µM	–	EC90 ([1]; MOI 0.001, day 3, viability of infected cells to 90%): 15.9 ± 1.7 µM; EC50 ([1]; MOI 0.001, day 3, read-out: EC50 Lee): 4.1 ± 0.4 µM; reduction of the viral S protein (immunofluorescence) ([6]; 1.2, 3.7, 11.1 and 33.3 μM, 2 days): in a dose-dependent manner; EC50 ([6]; Severe acute respiratory syndrome coronavirus 2, 48 h, Calu-3, MOI 0.05, 2 days): 0.46 µM; reduction of cytotoxicity relative to gemcitabine [7]: over 60 fold; share of 2h converted to gemcitabine [10]: 17.5%; stability in a microsomal condition in vitro [11]: much more stable; CC50 at 2 days [13]: > 100 µM; solubility [14]: ≥ 2000 µg/mL; cell death [17]: about 20%
NC(=O)c1ncn([C@@H]2O[C@H](CO)[C@@H](O)[C@H]2O)n1 [Ribavirin, reference compound]	–	–	–	–	–	–	–	–	–	–	–	–	–	–	–	20.1 µM	79.4 µM	20.4 µM	59.5 µM	11.1 ± 0.1 µM	EC90 [1]: 141 ± 18.3 µM; CC50 at 3 days [18]: > 300 µM
CCC(CC)COC(=O)[C@H](C)N[P@](=O)(OC[C@H]1O[C@@](C#N)(c2ccc3c(N)ncnn23)[C@H](O)[C@@H]1O)Oc1ccccc1 [Remdesivir, reference compound]	–	–	–	–	–	–	–	–	> 129.0	–	–	–	–	–	–	–	–	–	–	–	–
O=C(Nc1ccn([C@@H]2O[C@H](CO)[C@@H](O)C2(F)F)c(=O)n1)c1cccc(-c2ccccc2)n1 [Compound 2e]	> 8.7	> 88.5	10.7 to 34.3 µM	> 8.7	14.5 to 34.3 µM	in a dose-dependent manner	in a dose-dependent manner	Inhibition of influenza A viral polymerase activity	–	> 18.1	> 73.3	> 20.7	–	> 300 µM	> 90%	4.1 ± 0.4 µM	16.6 ± 8.6 µM	5 ± 0.1 µM	14.5 ± 0.4 µM	3.39 ± 0.1 µM	EC90 [1]: 34.3 ± 4.3 µM; solubility [14]: < 500 µg/mL
O=C(Nc1ccn([C@@H]2O[C@H](CO)[C@@H](O)C2(F)F)c(=O)n1)c1ccc(-c2ccccc2)cn1 [Compound 2d]	–	> 7.7	–	> 1.4	–	–	–	–	–	–	> 6.5	> 1.4	> 6.0	> 300 µM	–	46.1 ± 3 µM	119 ± 66.2 µM	50.2 ± 3.4 µM	219 ± 36.3 µM	39.1 ± 3.2 µM	CC10 [7]: >300.0 µM
NC12CC3CC(CC(C3)C1)C2 [Amantadine, reference compound]	–	–	–	–	–	–	–	–	–	–	–	–	> 19.5	–	–	–	–	15.4 ± 5.1 µM	–	–	CC50 at 3 days [18]: > 300 µM; CC10 [19]: 91.0 ± 34.5 µM
